Activity calls are given as the source filed them. The rule behind the calls is not given here.
What was measured:
[1] = target: T1, Glucocorticoid receptor (Homo sapiens, UniProt P04150); assay: Binding affinity to human GR
T1 sequence (P04150 whole entry): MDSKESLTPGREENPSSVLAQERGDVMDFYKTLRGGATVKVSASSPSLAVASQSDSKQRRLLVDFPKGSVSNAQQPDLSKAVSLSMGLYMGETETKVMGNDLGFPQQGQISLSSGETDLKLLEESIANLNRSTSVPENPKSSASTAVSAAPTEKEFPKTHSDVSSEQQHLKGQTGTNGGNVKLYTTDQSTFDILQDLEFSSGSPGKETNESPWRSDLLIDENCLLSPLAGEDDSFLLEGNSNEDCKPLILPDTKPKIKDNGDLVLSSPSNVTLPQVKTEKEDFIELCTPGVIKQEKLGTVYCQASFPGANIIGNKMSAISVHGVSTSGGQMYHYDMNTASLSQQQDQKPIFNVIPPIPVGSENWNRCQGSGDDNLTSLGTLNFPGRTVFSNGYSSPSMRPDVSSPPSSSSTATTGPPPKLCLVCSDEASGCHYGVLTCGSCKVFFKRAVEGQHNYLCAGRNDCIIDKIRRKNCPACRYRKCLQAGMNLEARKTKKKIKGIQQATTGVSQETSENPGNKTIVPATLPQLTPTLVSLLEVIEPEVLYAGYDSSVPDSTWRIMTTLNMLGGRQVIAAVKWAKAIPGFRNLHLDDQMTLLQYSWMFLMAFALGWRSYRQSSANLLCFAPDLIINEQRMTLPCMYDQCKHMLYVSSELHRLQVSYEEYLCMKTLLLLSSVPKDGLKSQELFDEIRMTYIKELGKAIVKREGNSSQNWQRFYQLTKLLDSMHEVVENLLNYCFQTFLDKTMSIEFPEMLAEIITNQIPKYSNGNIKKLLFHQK

[2] = target: T2, Progesterone receptor (Homo sapiens, UniProt P06401); assay: Binding affinity to human PR
T2 sequence (P06401 whole entry): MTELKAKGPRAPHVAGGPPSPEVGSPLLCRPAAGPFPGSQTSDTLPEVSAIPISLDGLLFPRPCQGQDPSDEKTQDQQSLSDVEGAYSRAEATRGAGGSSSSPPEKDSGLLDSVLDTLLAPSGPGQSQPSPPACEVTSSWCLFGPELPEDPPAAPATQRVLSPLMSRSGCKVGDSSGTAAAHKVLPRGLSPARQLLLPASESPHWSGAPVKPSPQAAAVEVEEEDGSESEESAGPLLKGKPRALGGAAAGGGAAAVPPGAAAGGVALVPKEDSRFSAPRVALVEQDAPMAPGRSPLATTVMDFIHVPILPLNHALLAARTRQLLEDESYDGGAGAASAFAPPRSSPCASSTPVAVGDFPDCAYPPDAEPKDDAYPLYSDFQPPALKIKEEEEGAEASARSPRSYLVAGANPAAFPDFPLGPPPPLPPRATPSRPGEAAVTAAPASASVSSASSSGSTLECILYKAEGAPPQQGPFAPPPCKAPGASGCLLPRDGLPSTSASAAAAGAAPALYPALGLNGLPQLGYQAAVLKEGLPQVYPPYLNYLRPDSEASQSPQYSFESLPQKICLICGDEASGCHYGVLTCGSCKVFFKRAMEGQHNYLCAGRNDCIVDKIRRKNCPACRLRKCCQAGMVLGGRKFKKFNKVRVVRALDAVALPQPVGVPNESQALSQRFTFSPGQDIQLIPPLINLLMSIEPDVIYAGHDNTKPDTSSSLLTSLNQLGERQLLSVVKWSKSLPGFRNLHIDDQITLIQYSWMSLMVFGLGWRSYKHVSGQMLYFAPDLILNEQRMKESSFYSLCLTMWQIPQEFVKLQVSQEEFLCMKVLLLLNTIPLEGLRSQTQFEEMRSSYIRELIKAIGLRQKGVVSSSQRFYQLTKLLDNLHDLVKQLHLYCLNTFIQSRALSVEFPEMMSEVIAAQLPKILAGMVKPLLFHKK

[3] = target: T3, Mineralocorticoid receptor (Homo sapiens, UniProt P08235); assay: Binding affinity to human MR
T3 sequence (P08235 whole entry): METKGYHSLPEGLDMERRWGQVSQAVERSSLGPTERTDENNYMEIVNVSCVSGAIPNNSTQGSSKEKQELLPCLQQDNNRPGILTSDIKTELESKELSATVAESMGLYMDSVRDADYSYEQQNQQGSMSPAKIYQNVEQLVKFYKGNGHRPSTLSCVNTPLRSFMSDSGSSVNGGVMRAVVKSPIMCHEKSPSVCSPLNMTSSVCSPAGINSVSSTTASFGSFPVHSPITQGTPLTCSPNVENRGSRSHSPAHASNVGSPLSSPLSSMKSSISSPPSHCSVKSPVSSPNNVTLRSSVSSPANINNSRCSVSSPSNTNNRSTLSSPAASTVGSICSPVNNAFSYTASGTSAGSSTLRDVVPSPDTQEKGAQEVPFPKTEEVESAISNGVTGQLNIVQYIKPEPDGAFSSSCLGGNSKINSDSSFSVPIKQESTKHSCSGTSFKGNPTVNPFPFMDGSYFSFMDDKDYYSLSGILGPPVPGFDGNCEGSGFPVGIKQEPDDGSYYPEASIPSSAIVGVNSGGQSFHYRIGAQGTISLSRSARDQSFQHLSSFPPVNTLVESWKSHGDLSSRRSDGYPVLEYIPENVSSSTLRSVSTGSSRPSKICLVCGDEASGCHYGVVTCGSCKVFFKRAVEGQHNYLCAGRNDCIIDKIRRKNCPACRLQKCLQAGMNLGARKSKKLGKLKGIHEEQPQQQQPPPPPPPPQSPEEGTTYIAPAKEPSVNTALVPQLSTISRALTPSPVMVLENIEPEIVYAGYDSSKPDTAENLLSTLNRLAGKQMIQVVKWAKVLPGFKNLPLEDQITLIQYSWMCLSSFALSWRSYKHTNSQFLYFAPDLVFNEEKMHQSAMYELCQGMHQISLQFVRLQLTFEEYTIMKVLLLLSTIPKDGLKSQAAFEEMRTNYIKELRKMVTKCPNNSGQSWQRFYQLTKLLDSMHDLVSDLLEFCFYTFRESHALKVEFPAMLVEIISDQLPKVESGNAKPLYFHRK

[4] = target: T1, Glucocorticoid receptor; assay: Inhibition of Dexamethasone induced GR transactivation of MMTV luciferase in HeLa cells; format: functional, cell-based
[5] = target: Estrogen receptor (Homo sapiens, UniProt Q92731+P03372); assay: Binding affinity to human ER; format: protein assay
[6] = tested on: HFF; assay: Inhibition of IL1-induced IL6 production in human foreskin fibroblast; format: functional, cell-based

IC50 [1]	IC50 [2]	IC50 [3]	IC50 [4]	IC50 [5]	Structure (SMILES)	Activity [6]
> 2000 nM	> 2000 nM	–	–	–	COC(=O)CSCC1=CC(C)(C)Nc2ccc(-c3ccccc3OC)cc21	–
> 2000 nM	> 2000 nM	–	–	–	C=CCSCC1=CC(C)(C)Nc2ccc(-c3c(OC)cccc3OC)cc21	–
804 nM	> 2000 nM	–	–	–	COc1ccccc1-c1ccc2c(c1)C(CSc1ccccc1)=CC(C)(C)N2	–
> 2000 nM	> 2000 nM	–	–	–	C=CCSCC1=CC(C)(C)Nc2ccc(-c3ccccc3[N+](=O)[O-])cc21	–
220 nM	1400 nM	> 2000 nM	260 nM	> 2000 nM	CC1(C)C=C(CSCCc2ccccc2)c2cc(-c3cccc(O)c3Cl)ccc2N1	inactive
194 nM	> 2000 nM	–	–	–	COc1ccccc1-c1ccc2c(c1)C(CSCCc1ccccc1)=CC(C)(C)N2	–
703 nM	> 2000 nM	–	–	–	COc1ccccc1-c1ccc2c(c1)C(CSCCC(C)C)=CC(C)(C)N2	–
> 2000 nM	> 2000 nM	–	–	–	C=CCSCC1=CC(C)(C)Nc2ccc(-c3ccccc3C)cc21	–
360 nM	460 nM	–	–	–	C=CCSCC1=CC(C)(C)Nc2ccc(-c3ccccc3OC)cc21	–
> 2000 nM	> 2000 nM	–	–	–	COc1ccccc1-c1ccc2c(c1)C(C)=CC(C)(C)N2	–
> 2000 nM	> 2000 nM	–	–	–	C=CCSCC1=CC(C)(C)Nc2ccc(-c3cc(OC)ccc3OC)cc21	–
> 2000 nM	> 2000 nM	–	–	–	C=CCSCC1=CC(C)(C)Nc2ccc(-c3ccccc3-c3ccccc3)cc21	–
303 nM	> 2000 nM	–	–	–	CCC(C)CSCC1=CC(C)(C)Nc2ccc(-c3ccccc3OC)cc21 (centres undefined)	–
1000 nM	460 nM	–	–	–	C=CCSCC1=CC(C)(C)Nc2ccc(-c3cccc(OC)c3)cc21	–
> 2000 nM	620 nM	–	–	–	COc1ccccc1-c1ccc2c(c1)C(CSC(C)=O)=CC(C)(C)N2	–

The remaining lines, values behind:

Structure (SMILES)	IC50 [1]	IC50 [2]	IC50 [3]	IC50 [4]	IC50 [5]	Activity [6]
C=CCSCC1=CC(C)(C)Nc2ccc(-c3cccc(OC)c3OC)cc21	> 2000 nM	> 2000 nM	–	–	–	–
C=CCSCC1=CC(C)(C)Nc2ccc(-c3ccc(OC)cc3)cc21	> 2000 nM	> 2000 nM	–	–	–	–
COc1ccccc1-c1ccc2c(c1)C(CSC1CCCC1)=CC(C)(C)N2	548 nM	> 2000 nM	–	–	–	–
COc1ccccc1-c1ccc2c(c1)C(CSCc1ccccc1)=CC(C)(C)N2	> 2000 nM	660 nM	–	–	–	–
COc1ccccc1-c1ccc2c(c1)C(CSC1CCCCC1)=CC(C)(C)N2	371 nM	> 2000 nM	–	–	–	–
COc1ccccc1-c1ccc2c(c1)C(CSc1ccc(Cl)cc1)=CC(C)(C)N2	800 nM	> 2000 nM	–	–	–	–
C=CCSCC1=CC(C)(C)Nc2ccc(-c3cc(F)ccc3OC)cc21	190 nM	1400 nM	–	–	–	–
C=CCOCC1=CC(C)(C)Nc2ccc(-c3ccccc3OC)cc21	> 2000 nM	> 2000 nM	–	–	–	–
C=CCNCC1=CC(C)(C)Nc2ccc(-c3ccccc3OC)cc21	> 2000 nM	> 2000 nM	–	–	–	–
CCCSCC1=CC(C)(C)Nc2ccc(-c3ccccc3OC)cc21	1020 nM	1600 nM	–	–	–	–
C=CCSCC1=CC(C)(C)Nc2ccc(-c3cccc(OCC)c3)cc21	> 2000 nM	> 2000 nM	–	–	–	–
CNC(=O)CSCC1=CC(C)(C)Nc2ccc(-c3ccccc3OC)cc21	> 2000 nM	> 2000 nM	–	–	–	–
C=CCSCC1=CC(C)(C)Nc2ccc(-c3ccccc3C(F)(F)F)cc21	> 2000 nM	> 2000 nM	–	–	–	–
C=CCSCC1=CC(C)(C)Nc2ccc(-c3ccccc3F)cc21	> 2000 nM	360 nM	–	–	–	–
COc1ccc(F)cc1-c1ccc2c(c1)C(CSCCc1ccccc1)=CC(C)(C)N2	84 nM	> 2000 nM	> 2000 nM	45 nM	> 2000 nM	inactive
C=CCSCC1=CC(C)(C)Nc2ccc(-c3ccccc3OCC)cc21	> 2000 nM	> 2000 nM	–	–	–	–
C=CCSCC1=CC(C)(C)Nc2ccc(-c3cccc(O)c3Cl)cc21	129 nM	960 nM	–	–	–	–
C=CCSCC1=CC(C)(C)Nc2ccc(-c3ccccc3)cc21	> 2000 nM	> 2000 nM	–	–	–	–

From ChEMBL document CHEMBL1139667, “Discovery and SAR study of novel dihydroquinoline containing glucocorticoid receptor ligands” (Bioorg Med Chem Lett, 2006)
